Like-named read-outs stand apart in the source and are kept apart here. Blank lines part the entries; values can stand above or below the molecule they belong to. Residues, ends and D or L forms follow the SMILES beside them.
Legend:
[1] = test system: GRPR-positive PC-3 tumors; conditions: mouse, in vivo
Protocol: (§1) 2-3 weeks after inoculation, when tumor size averaged 200 mm^3, mice were injected intravenously with 5-10 MBq of radiolabeled peptide (200 pmol, 200 μL). To determine the receptor-mediated localization of the radiolabeled peptides, additional animals were co-injected with an excess (20 nmol) of unlabeled peptide. Mice were euthanized 1 h or 2 h post injection (p.i.) by CO2/O2 asphyxiation. Mice were first scanned in prone position on a small animal PET/CT scanner (Inveon; Siemens Preclinical Solutions). PET emission scans were acquired for 30-60 min, followed by a CT scan (spatial resolution 113.15 μm; 80 kV; and 500 μA). Scans were reconstructed using Inveon Acquisition Workplace software (version 1.5; Siemens Preclinical Solutions), using a 3-dimensional ordered-subset expectation maximization/maximization a posteriori algorithm with the following parameters: matrix, 256×256×161; pixel size, 0.40×0.40×0.796 mm; and β-value, 1.5, with uniform variance and FastMAP. After scanning, blood, tumor, and relevant organs and tissues were collected, weighed and counted in a γ-counter. The percentage injected dose per gram (% ID/g) was determined for each tissue sample.
(§2) Statistical analysis was performed using GraphPad Prism version 5.01 (San Diego, Calif., USA). […] Statistical analysis on biodistribution data was performed using a 1-way ANOVA with a Bonferroni post-hoc test, and the level of significance was set at P less than 0.05.

[2] = in vivo; conditions: male, nude BALB/c, mouse, iv, 200 pmol, total radioactivity, uptake in PC-3 tumors
Protocol: as §1, §2

[3] = test system: GRPR-positive PC-3 tumors; experiment: Small-animal PET/CT and biodistribution in mice bearing s.c. PC-3 xenografts; conditions: for tumor uptake after co-injection of excess unlabeled peptide (GRPR-specificity): co-injection of 100-fold excess of unlabeled JMV4168 or JMV5132
Protocol: as §1, §2

[4] = Octanol/water partition coefficient; type: physicochemical; conditions: pH 7.4, octanol / PBS pH 7.4, n=3; read-out: log P octanol/water
Protocol: Octanol/Water Partition Coefficient The radiolabeled peptide (1 MBq) was diluted in 500 μL phosphate-buffered saline (pH 7.4) and mixed vigorously with 500 μL octanol for 2 min using a vortex mixer. The two layers were separated by centrifugation (1000 rpm, 5 min).

[5] = Small-animal PET/CT and biodistribution in mice bearing s.c. PC-3 xenografts; conditions: male, nude BALB/c, mouse, iv, 200 pmol, total radioactivity, 200 pmol
Protocol: as §1, §2

[6] = biological target: T1, PC-3 cells (gastrin-releasing peptide receptor) (Homo sapiens, UniProt P30550); experiment: Blocking of 125I-Bombesin binding to PC-3 cells; conditions: 56 to 0.44 nM
T1 construct: 3×10^6 PC-3 cells were exposed to a constant amount (˜50,000 cpms) of ^125I-Bombesin; endogenous in cells; host or cells: PC-3 cells
T1 sequence (P30550 whole entry): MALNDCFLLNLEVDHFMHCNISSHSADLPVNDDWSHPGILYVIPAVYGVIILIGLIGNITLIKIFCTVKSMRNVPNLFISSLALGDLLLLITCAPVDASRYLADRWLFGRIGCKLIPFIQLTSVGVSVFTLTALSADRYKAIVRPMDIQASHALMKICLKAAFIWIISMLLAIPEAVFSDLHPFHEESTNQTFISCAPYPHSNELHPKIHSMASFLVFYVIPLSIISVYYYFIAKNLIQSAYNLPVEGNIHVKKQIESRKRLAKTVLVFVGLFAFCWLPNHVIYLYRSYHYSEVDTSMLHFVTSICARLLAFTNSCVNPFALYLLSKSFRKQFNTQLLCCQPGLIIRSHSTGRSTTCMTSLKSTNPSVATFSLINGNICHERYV
Protocol: A NOTA-conjugated bombesin derivative (IMP468) was prepared as described above. […] Our initial experiment was to determine if IMP468 could specifically block bombesin from binding to PC-3 cells. We used IMP333 as a non-specific control. […] A range of 56 to 0.44 nM was used as our inhibitory concentrations.
This experiment was repeated using a commercially available BBN peptide.

[7] = male, nude BALB/c, iv, 200 pmol, 2 h

- remaining in blood [1, 7]: 0.19±0.13 % ID/g
- clearance / excretion route [1]: partially hepatobiliary
- tissue uptake at 2 h [2]: 5.24 ± 0.29 %ID/g
SMILES: CC(C)C[C@H](NC(=O)C[C@H](O)[C@H](CC(C)C)NC(=O)[C@H](Cc1c[nH]cn1)NC(=O)CNC(=O)[C@@H](NC(=O)[C@H](C)NC(=O)[C@H](Cc1c[nH]c2ccccc12)NC(=O)[C@H](CCC(N)=O)NC(=O)[C@@H](Cc1ccccc1)NC(=O)CCNC(=O)CCNC(=O)Cc1ccc(CN2CCN(CC(=O)O)CCN(CC(=O)O)CC2)cc1)C(C)C)C(N)=O [^68Ga-JMV5132, metal not drawn]
- tumor uptake after co-injection of excess unlabeled peptide (GRPR-specificity) [3]: significantly reduced

- logP [4]: -2.53 ± 0.04
- tissue uptake at 2 h ([5]; PC-3 tumor, uptake in PC-3 tumors, 2 h after injection, i.v.): 5.96 ± 1.39 %ID/g
- tissue uptake at 2 h ([5]; blood, remaining in blood, 2 h p.i.): 0.09 ± 0.04 %ID/g
- pancreas uptake decreased by a factor ([3]; from 1 h to 2 h p.i.): 6.1
- clearance / excretion route ([3]; mice with s.c. PC-3 xenografts): exclusively via the kidney
SMILES: CC(C)C[C@H](NC(=O)C[C@H](O)[C@H](CC(C)C)NC(=O)[C@H](Cc1c[nH]cn1)NC(=O)CNC(=O)[C@@H](NC(=O)[C@H](C)NC(=O)[C@H](Cc1c[nH]c2ccccc12)NC(=O)[C@H](CCC(N)=O)NC(=O)[C@@H](Cc1ccccc1)NC(=O)CCNC(=O)CCNC(=O)CN1CCN(CC(=O)O)CCN(CC(=O)O)CCN(CC(=O)O)CC1)C(C)C)C(N)=O [^68Ga-JMV4168, metal not drawn]

SMILES: CSCC[C@H](NC(=O)[C@H](CC(C)C)NC(=O)[C@H](Cc1c[nH]cn1)NC(=O)CNC(=O)[C@@H](NC(=O)[C@H](C)NC(=O)[C@H](Cc1c[nH]c2ccccc12)NC(=O)[C@@H](NC(=O)[C@H](Cc1c[nH]c2ccccc12)NC(=O)[C@H](CCC(N)=O)NC(=O)CCCCCCCNC(=O)CN1CCN(CC(=O)O)CCN(CC(=O)O)CC1)C(C)C)C(C)C)C(N)=O [IMP468] (HELM PEPTIDE1{[O=C(O)CN1CCN(CC(=O)O)CCN(CC(=O)[*:2])CC1].[O=C(CCCCCCCN[*:1])[*:2]].Q.W.V.W.A.V.G.H.L.M.[am]}$$$$V2.0)
- block the binding of 125I-BBN [6]: could block

- remaining in blood [1, 7]: 0.05±0.01 % ID/g
- uptake in PC-3 tumors [1, 7]: 5.30±0.98 % ID/g
SMILES: CC(C)C[C@H](NC(=O)C[C@H](O)[C@H](CC(C)C)NC(=O)[C@H](Cc1c[nH]cn1)NC(=O)CNC(=O)[C@@H](NC(=O)[C@H](C)NC(=O)[C@H](Cc1c[nH]c2ccccc12)NC(=O)[C@H](CCC(N)=O)NC(=O)[C@@H](Cc1ccccc1)NC(=O)CCNC(=O)CCNC(=O)Cc1ccc(CN2CCN(CC(=O)O)CCN(CC(=O)O)CC2)cc1)C(C)C)C(N)=O [Al^18F-JMV5132]
- tumor uptake after co-injection of excess unlabeled peptide (GRPR-specificity) [3]: significantly reduced

Source: patent US20150217006A1, “AL-F-18-LABELED, AL-F-19-LABELED AND GA-68-LABELED GASTRIN-RELEASING PEPTIDE RECEPTOR (GRPR)-ANTAGONISTS FOR IMAGING OF PROSTATE CANCER” (Immunomedics, Inc., priority 2014, published 2015)
